What was measured:
[1] = Initial formulation attempts with common solvents and excipients: crystal formation upon storage; assay type: physicochemical; settings: common pharmaceutically acceptable solvents and excipients
Text: Accordingly, further development was needed to arrive at a stable topical formulation where crystal formation of 6-ethoxy-7-methoxy-2-(2-methylsulfanylphenyl)-3,1-benzoxazin-4-one can be avoided.

[2] = Solubility of the active in water and organic solvents (statement); assay type: physicochemical
Text: However, such organic solvents are unsuitable for use in topical formulations for treatment of skin disease.

CCOc1cc2c(=O)oc(-c3ccccc3SC)nc2cc1OC [6-Ethoxy-7-methoxy-2-(2-methylsulfanylphenyl)-3,1-benzoxazin-4-one]
Crystal formation upon storage of the formulation [1]: form needle shaped crystals upon storage of the formulation
Solubility in organic solvents ([2]; various organic solvents): can be dissolved in various organic solvents
Solubility in water ([2]; water): low solubility in water
